# Data from patent US20090280543A1, “REGIOSELECTIVE GLYCOSYLATION” (THE UNIVERSITY OF YORK, priority 2005, published 2009).
# What was measured:
# [1] = D-glucose adsorption by PVPP, HPAEC of samples treated with and without PVPP; format: physicochemical
# Procedure: FIG. 8: Lack of D-glucose adsorption by PVPP.
# High Performance Anion Exchange Chromatography (HPAEC): HPAEC coupled with integrated amperometric detection (IAD) (Dionex, U.K.) was used to detect D-glucose using a CarboPac™ PA10 column (2×250 mm, Dionex). Seven different monosaccharides including L-Fucose, L-rhamnose, D-galactose, L-arabinose, D-glucose, D-manose and D-xylose were used as references. The D-glucose was separated isocratically at a flow rate 0.35 mL/min with 24 mM NaOH (pH>12.5) over 18 min. The column was then washed with a linear gradient of NaOH from 24 mM to 200 mM over 5 min. The IAD waveform was set following manufacturer's recommendation.
# Stage 3, detection: 50 μl of the reaction mix were transferred to a 96-well filtration plate (Abgene, U.K.), mixed with an equal volume of PVPP aqueous suspension (25 g/L), shaken for 1 h at 25° C. before centrifugation (1000 g, 5 min). To each filtrate, 50 mM 2-morpholino-ethanesulfonic acid buffer (MES) (pH 7.0), ABTS™ (0.1 mM), peroxidase (2 U) and glucose oxidase (2 U) were added to a final volume of 125 μl. The formation of the green dye was monitored at 405 nm at 30 min using a plate reader (Bio-Tec Instruments Inc., U.S.A).
# [2] = Autohydrolysis of esculin in MES buffer, RP-HPLC; format: physicochemical; conditions: 50 mM MES buffer (pH 7.0), 44 h at 25° C.
# Procedure: (§1) FIG. 5: Investigation of ecsulin hydrolysis. Neither a) autohydrolysis in MES buffer nor b) hydrolysis in bacterial culture of esculin (12) was detected. Samples at 24 h, 44 h incubation and additionally a standard of the aglycone esculetin (11) are illustrated;
# (§2) For these controls, samples were incubated for 44 h at 25° C. as in the standard experimental conditions, and analyzed by RP-HPLC to confirm the lack of aglycone (esculetin, 11) (FIG. S1).
# [3] = tested on: E. coli transformed with pGEX-2T vector; assay: Hydrolysis of esculin in bacterial culture, RP-HPLC; conditions: 44 h at 25° C.
# Procedure: as §1, §2
Compound,loss of D-glucose by filtration through PVPP [1],autohydrolysis during incubation [2],hydrolysis in the presence of the bacterial culture [3]
O=C[C@H](O)[C@@H](O)[C@H](O)[C@H](O)CO [D-glucose],no significant loss,,
"O=c1ccc2cc(O[C@@H]3O[C@H](CO)[C@@H](O)[C@H](O)[C@H]3O)c(O)cc2o1 [esculin, esculetin-6-O-glucoside]",,lack of autohydrolysis,not hydrolyzed
